# Source: patent US11254633B2, “Cannabis thin layer decarboxylation” (priority 2018, dated 2022)
# Like-named read-outs stand apart in the source and are kept apart here.
# Columns and labels:
# [1] = CBD plasma concentration after dosing; assay type: in vivo
# Procedure: The dosing of CBD for a given range of activity is predictable, Table 1. […] This is a desirable group of activities to select. CBD at one micromolar is equivalent to 0.3 ng per ML and 10 micromolar is equivalent to 3 ng per ML. AUC for CBD ranges widely for different subjects but reportedly averages about 4 ng hour per ML. A single dose of 4 mg would provide an average 0.16 ng/ml concentration over 24 hours. […] Thus in 80 mg dose would provide an average of 10 micromolar over 24 hours. A single dose would produce a single large peak with return to baseline within about 10 hours, again this is variable between individuals. It is known that as frequency of dosing increases the plasma concentration will approach a steady-state or constant value between doses, eliminating the large peaks and valleys associated with infrequent doses. A reasonable dosing schedule might be 25 mg CBD three times daily to achieve 75 mg daily, about 9.4 micromolar average, at the high end of the 1-10 uM range. Similarly a 2.5 mg dose every eight hours would yield an approximately 1 micromolar average concentration.
# [2] = cited from earlier work
# [3] = plant material in a 110° C. oven, Taschwer; cited from earlier work
# [4] = cited from earlier work; remark: listed apart in the source
# [5] = test system: alpha1 adrenoreceptors and u-opioid receptors; conditions: CBD at 1-10 uM; cited from earlier work
# Human keratinocyte = conditions: CBD at 1-10 uM; cited from earlier work
# TRPV1 receptor = TRPV1 receptor (Homo sapiens, UniProt Q8NER1); conditions: CBD at 1-10 uM; cited from earlier work
# neuroprotection = conditions: CBD at 1-10 uM; cited from earlier work
# Membrane = conditions: CBD at 1-10 uM; cited from earlier work
# 5HT-1a receptor = biological target: T1, 5HT-1a receptor (Homo sapiens, UniProt P08908); conditions: CBD at >10 uM; cited from earlier work
# T1 sequence (P08908 1-422): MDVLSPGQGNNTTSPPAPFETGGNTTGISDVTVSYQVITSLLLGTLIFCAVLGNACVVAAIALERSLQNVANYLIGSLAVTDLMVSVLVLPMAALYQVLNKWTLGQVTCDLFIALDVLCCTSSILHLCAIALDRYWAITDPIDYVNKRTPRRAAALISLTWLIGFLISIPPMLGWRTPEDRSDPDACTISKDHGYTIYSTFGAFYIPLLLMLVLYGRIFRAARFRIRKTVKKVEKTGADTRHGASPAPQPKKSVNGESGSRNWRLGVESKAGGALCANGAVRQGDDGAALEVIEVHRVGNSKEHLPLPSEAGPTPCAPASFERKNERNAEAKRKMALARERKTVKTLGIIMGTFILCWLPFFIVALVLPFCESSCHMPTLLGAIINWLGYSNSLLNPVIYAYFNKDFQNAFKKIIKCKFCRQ
# [6] = for time to full conversion (decarboxylation): thin layer, 400 deg F.
# [7] = 110° C., FIG. 7, cited from earlier work
# CB one receptor = CB one receptor (Homo sapiens, UniProt P21554); conditions: fold lower than THC; cited from earlier work
# CB 2 receptor = CB 2 receptor (Homo sapiens, UniProt P34972); conditions: fold higher than THC; cited from earlier work
# onychomycosis = conditions: cited from earlier work
# [8] = two-13-year-olds in one study; cited from earlier work
# [9] = aqueous; cited from earlier work
# [10] = cited from earlier work; remark: listed apart in the source
# pain patients = conditions: initial studies in pain patients; cited from earlier work
# [11] = 100° C. and 110° C., FIG. 6C, 6D, sum decreases significantly
# Chain of TRPV1 receptor (Q8NER1 whole entry): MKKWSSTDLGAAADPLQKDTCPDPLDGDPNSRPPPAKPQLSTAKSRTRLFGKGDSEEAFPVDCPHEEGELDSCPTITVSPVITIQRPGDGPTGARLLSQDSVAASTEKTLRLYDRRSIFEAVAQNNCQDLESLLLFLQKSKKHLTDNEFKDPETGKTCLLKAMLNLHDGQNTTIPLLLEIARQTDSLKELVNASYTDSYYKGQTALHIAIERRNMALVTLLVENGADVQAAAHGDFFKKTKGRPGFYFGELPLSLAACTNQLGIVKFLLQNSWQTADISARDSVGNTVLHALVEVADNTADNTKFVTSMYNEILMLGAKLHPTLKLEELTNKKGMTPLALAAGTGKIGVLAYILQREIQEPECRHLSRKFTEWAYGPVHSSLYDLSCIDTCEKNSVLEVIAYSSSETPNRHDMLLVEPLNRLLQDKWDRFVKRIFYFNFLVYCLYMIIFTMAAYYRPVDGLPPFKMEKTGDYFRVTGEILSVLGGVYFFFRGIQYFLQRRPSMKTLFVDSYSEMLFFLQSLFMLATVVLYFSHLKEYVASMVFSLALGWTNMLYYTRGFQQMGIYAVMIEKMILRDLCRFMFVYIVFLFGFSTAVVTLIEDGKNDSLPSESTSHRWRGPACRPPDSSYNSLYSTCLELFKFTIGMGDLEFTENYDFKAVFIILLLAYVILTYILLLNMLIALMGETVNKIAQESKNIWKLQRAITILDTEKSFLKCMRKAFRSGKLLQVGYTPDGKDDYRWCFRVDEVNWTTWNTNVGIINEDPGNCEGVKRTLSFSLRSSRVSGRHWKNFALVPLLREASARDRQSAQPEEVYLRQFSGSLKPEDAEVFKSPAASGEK
# Chain of CB 2 receptor (P34972 whole entry): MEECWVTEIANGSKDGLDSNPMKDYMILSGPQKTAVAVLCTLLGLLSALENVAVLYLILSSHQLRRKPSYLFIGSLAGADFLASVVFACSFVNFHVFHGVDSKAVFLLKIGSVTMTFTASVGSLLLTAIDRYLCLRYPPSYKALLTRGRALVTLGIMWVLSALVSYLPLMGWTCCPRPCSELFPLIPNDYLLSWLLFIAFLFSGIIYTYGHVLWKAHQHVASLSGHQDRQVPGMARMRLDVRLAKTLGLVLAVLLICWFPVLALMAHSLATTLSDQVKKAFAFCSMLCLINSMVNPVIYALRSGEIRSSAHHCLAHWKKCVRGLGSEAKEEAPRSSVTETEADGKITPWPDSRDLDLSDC
# Chain of CB one receptor (P21554 whole entry): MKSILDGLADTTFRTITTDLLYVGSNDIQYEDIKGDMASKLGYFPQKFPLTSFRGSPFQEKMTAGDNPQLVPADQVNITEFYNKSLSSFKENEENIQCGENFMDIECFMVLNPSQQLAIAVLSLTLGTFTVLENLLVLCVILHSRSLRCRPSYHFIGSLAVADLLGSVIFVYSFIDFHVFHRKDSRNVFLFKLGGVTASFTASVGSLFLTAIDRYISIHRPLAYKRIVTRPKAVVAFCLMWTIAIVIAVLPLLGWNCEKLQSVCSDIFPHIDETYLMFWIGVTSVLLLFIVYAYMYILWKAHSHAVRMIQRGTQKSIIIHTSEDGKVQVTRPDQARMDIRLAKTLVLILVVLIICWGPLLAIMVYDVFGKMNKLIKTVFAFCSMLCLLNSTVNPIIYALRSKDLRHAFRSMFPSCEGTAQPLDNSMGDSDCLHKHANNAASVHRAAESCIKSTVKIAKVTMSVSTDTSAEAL
structure (smiles),measurement,setting,value
"C=C(C)[C@@H]1CCC(C)=C[C@H]1c1c(O)cc(CCCCC)cc1O [CBD, cannabidiol]",average concentration,[1]; 2.5 mg dose every eight hours,approximately 1 micromolar
same,average concentration,"[1]; 25 mg CBD three times daily, 75 mg daily",about 9.4 micromolar
same,average concentration over 24 hours,[1]; 80 mg dose,10 µM
same,average concentration over 24 hours,[1]; 8 milligrams dose,0.32 ng per ML
same,"average concentration over 24 hours, as molarity",[1]; 8 milligrams dose,about one micromolar
same,average concentration over 24 hours,[1]; single dose of 4 mg,0.16 ng/mL
same,degradation judged from sum of CBDA and CBD concentration,"[2]; 80° C. and 90° C., FIG. 6A, 6B",no degradation
same,degradation judged from sum of CBDA and CBD concentration,[2]; [11],loss
same,time to peak CBD,"[2]; 110° C., cannabis oil in an open vial in an oven, FIG. 6D",90 min
same,loss of converted CBD compared to the closed reactor at the same temperature,"[2]; 120° open reactor, FIG. 6E",45-55%
same,time to peak CBD,[3],135 min
same,"AUC for CBD, average",[4]; ranges widely for different subjects,about 4 ng hour per ML
same,return to baseline after a single dose,"[4]; single dose, variable between individuals",≤ 10 h
same,action induced by CBD: Decreased activation of alpha1 adrenoreceptors and u-opioid receptors,[5],Activation of alpha1 adrenoreceptors and u-opioid
same,action induced by CBD: Decreased human keratinocyte proliferation,Human keratinocyte,Human keratinocyte proliferation
same,action induced by CBD: Increased or activated TRPV1 receptor,TRPV1 receptor,TRPV1 receptor
same,action induced by CBD: Increased or activated signs of neuroprotection,neuroprotection,Signs of neuroprotection
same,action induced by CBD: Increased or activated Membrane stability,Membrane,Membrane stability
same,action induced by CBD: Ativated 5HT-1a receptor,5HT-1a receptor,5HT-1a receptor
C=C(C)[C@@H]1CCC(C)=C[C@H]1c1c(O)cc(CCCCC)c(C(=O)O)c1O [CBDA],time to full conversion (decarboxylation),[6],fully converted in under a minute
same,degradation judged from sum of CBDA and CBD concentration,"[2]; 80° C. and 90° C., FIG. 6A, 6B",no degradation
same,degradation judged from sum of CBDA and CBD concentration,[2]; [11],loss
same,loss of CBDA,"[2]; 120° C. open reactor, FIG. 6E, incomplete conversion to CBD",rapid loss
CCCCCc1cc(O)c(C/C=C(\C)CCC=C(C)C)c(O)c1C(=O)O [CBGA],consumption of CBGA,[7],complete consumption
CCCCCc1cc(O)c(C/C=C(\C)CCC=C(C)C)c(O)c1 [CBG],loss of total CBG,[7]; in the time decarboxylation is maximized,50%
CCCCCc1cc(O)c2c(c1)OC(C)(C)c1ccc(C)cc1-2 [CBN],"affinity for CB one receptor, lower than THC",CB one receptor,2 fold
same,"affinity for CB 2 receptor, higher than THC",CB 2 receptor,3 fold
C=C1CC[C@H]2O[C@]2(C)CC[C@@H]2[C@@H]1CC2(C)C [Caryophyllene Oxide],time in which effective in onychomycosis,onychomycosis; at 8% concentration,15 days
same,clinical onychomycosis efficacy versus reference drugs,onychomycosis; in vivo,efficacy similar to cyclopiroxolamine and sulconazole
CCCCCc1cc(O)c2c(c1)OC(C)(C)[C@@H]1CC=C(C)C[C@@H]21 [Delta 8 THC],psychoactive effect,[8],no psychoactive effect
CCCCCc1cc2c(c(O)c1C(=O)O)[C@@H]1C=C(C)CC[C@H]1C(C)(C)O2 [THCA],time to full conversion (decarboxylation),[6],fully converted in under a minute
CCCCCc1cc(O)c2c(c1)OC(C)(C)[C@@H]1CCC(C)=C[C@@H]21 [THC],THC remaining,[6]; 20 min,only a trace
same,concentration at which THC saturates in cannabis tea,[9],about 10 mg/L
same,anti-inflammatory activity relative to hydrocortisone,[10]; relative to hydrocortisone,two times
same,anti-inflammatory activity relative to aspirin,[10]; times the activity of aspirin,20 times
same,analgesic effect in pain patients,pain patients,provided analgesic effects
same,loss of total THC (THC A+ THC) from the starting condition,[2]; 120° C. closed reactor,approximately 10%
same,loss of THC relative to 120° C. closed reactor,"[2]; open reactor, 100° C. (212° F.), FIG. 6C",about 28%
same,loss compared to that maximally achieved at 120° C. in the closed reactor,"[2]; open reactor, 110° C. (230° F.), FIG. 6d",about 28%
